{"source": "patent EP2948433B1", "about": "“ATGLISTATIN AS LIPASE INHIBITOR” (Technische Universität Graz, priority 2013, dated 2014)", "key": {"[1]": {"test_system": "TG hydrolase activity of wild-type WAT", "assay": "TG hydrolase activity in WAT lysates of wild-type mice", "assay_type": "biochemical", "details": "up to, at a concentration of 40 µM", "quoted_text": "For determination of lipase activity, lysates of E. coli overexpressing recombinant strep-tagged ATGL and CGI-58 were incubated with a substrate containing radiolabeled [9,10-3H(N)]-triolein. Subsequently, FA were extracted and quantified by liquid scintillation counting. Lysates of cells expressing empty vector were set as blank. Inhibitors were solubilized in DMSO and added at the indicated concentrations. DMSO alone was used as negative control. […] Data are presented as mean +/-S.D. of triplicate determinations. […] Lipase activity of ATGL, HSL, lipoprotein lipase, and pancreatic lipase was determined using triolein as substrate. MGL activity was detected in the presence of rac-(1,3)-monooleoylglycerol as substrate. Inhibitors were solubilized in DMSO and added at the indicated concentrations. DMSO alone was used as negative control. (A) Dose-dependent inhibition of TG hydrolase activity in WAT lysates obtained from wild-type and ATGL-ko mice."}, "[2]": {"test_system": "TG hydrolase activity in lysates obtained from ATGL-ko animals", "assay": "TG hydrolase activity in WAT lysates of ATGL-ko mice", "assay_type": "biochemical", "details": "at concentrations ≥ 20 µM", "experimental": "(§1) • Figure 1. Structure of compounds 1 to 3 (reference) and compound 4 (atglistatin) and effect on ATGL activity. For determination of lipase activity, lysates of E. coli overexpressing recombinant strep-tagged ATGL and CGI-58 were incubated with a substrate containing radiolabeled [9,10-3H(N)]-triolein. Subsequently, FA were extracted and quantified by liquid scintillation counting. Lysates of cells expressing empty vector were set as blank. Inhibitors were solubilized in DMSO and added at the indicated concentrations. DMSO alone was used as negative control. (A) Structure and IC50 values of compounds 1-4. (B) Dose-dependent inhibition of ATGL in the presence of compound 3 and 4. […] (C) Lineweaver-Burk plots for kinetic analysis of ATGL inhibition. Experiments were performed at varying concentrations of substrate (0.05 - 3 mM) in presence and absence of compound 4 (Atglistatin). […] Lipase activity of ATGL, HSL, lipoprotein lipase, and pancreatic lipase was determined using triolein as substrate. MGL activity was detected in the presence of rac-(1,3)-monooleoylglycerol as substrate. […] The release of FA (A) and glycerol (B) in the media was determined using commercial kits. […] At the indicated timepoints blood was taken retroorbitally and plasma parameters were measured using commercial kits. […] 8 h after gavage blood was taken retroorbitally and plasma parameters were measured using commercial kits. […]"}, "[3]": {"biological_target": "T1, purified bovine LPL (Bos taurus, UniProt P11151)", "T1 construct": "purchased Sigma", "T1 sequence (P11151 29-478)": "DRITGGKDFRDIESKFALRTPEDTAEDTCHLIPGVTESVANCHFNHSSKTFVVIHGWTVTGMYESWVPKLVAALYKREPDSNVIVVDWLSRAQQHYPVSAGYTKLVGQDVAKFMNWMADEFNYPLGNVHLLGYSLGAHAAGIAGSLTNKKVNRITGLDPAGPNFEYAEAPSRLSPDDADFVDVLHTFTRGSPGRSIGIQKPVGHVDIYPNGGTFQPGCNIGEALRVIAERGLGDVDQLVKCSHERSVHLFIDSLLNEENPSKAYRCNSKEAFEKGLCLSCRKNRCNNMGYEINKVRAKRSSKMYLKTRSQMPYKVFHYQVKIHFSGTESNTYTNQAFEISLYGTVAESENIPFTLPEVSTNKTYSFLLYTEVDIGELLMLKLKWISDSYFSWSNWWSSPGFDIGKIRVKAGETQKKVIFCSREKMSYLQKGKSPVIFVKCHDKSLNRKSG", "assay": "Lipoprotein lipase activity, purified enzyme, triolein substrate", "assay_type": "biochemical", "details": "Fig. 2D", "experimental": "as §1"}, "[4]": {"test_system": "WAT organ cultures", "assay": "Lipolysis of isolated WAT organ cultures", "assay_type": "cell-based, C57BI6 mice", "details": "8 h incubation", "experimental": "• Figure 1. Structure of compounds 1 to 3 (reference) and compound 4 (atglistatin) and effect on ATGL activity. For determination of lipase activity, lysates of E. coli overexpressing recombinant strep-tagged ATGL and CGI-58 were incubated with a substrate containing radiolabeled [9,10-3H(N)]-triolein. Subsequently, FA were extracted and quantified by liquid scintillation counting. Lysates of cells expressing empty vector were set as blank. Inhibitors were solubilized in DMSO and added at the indicated concentrations. DMSO alone was used as negative control. (A) Structure and IC50 values of compounds 1-4. (B) Dose-dependent inhibition of ATGL in the presence of compound 3 and 4. […] (C) Lineweaver-Burk plots for kinetic analysis of ATGL inhibition. Experiments were performed at varying concentrations of substrate (0.05 - 3 mM) in presence and absence of compound 4 (Atglistatin). […] Data are presented as mean +/-S.D. of triplicate determinations. Data for compound 4 are representative for at least three independent experiments. • Figure 2. Selectivity of Atglistatin. Lipase activity of ATGL, HSL, lipoprotein lipase, and pancreatic lipase was determined using triolein as substrate. MGL activity was detected in the presence of rac-(1,3)-monooleoylglycerol as substrate. Inhibitors were solubilized in DMSO and added at the indicated concentrations. DMSO alone was used as negative control. (A) Dose-dependent inhibition of TG hydrolase activity in WAT lysates obtained from wild-type and ATGL-ko mice. (B) Inhibition of TG hydrolase activity in wild-type WAT lysates by Atglistatin (40 µM) and by the HSL inhibitor Hi 76-0079 (20 µM). (C) Effect of Atglistatin on murine MGL (purified from E. coli), and murine HSL (overexpressed in COS-7 lysates) activity. […] The release of FA (A) and glycerol (B) in the media was determined using commercial kits. […] At the indicated timepoints blood was taken retroorbitally and plasma parameters were measured using commercial kits. […] 8 h after gavage blood was taken retroorbitally and plasma parameters were measured using commercial kits. […]"}, "[5]": {"test_system": "AML-12 mouse hepatocytes", "assay": "MTT-based in vitro viability (toxicity) test", "assay_type": "cell-based", "details": "at concentrations ≥100 µM", "experimental": "Toxicity test for Atglistatin in AML-12 mouse hepatocytes. For MTT-based in vitro viability assays, cells were seeded at an initial density of 1x10^4 cells per well in 96-well plates and cultured under standard conditions for twenty-four hours. The next day, cells were pretreated with different concentrations of Atglistatin dissolved in DMSO or Cisplatin dissolved in dimethylformamide (DMF) (Sigma-Aldrich) as positive control for two hours. Medium was replaced by an identical fresh medium and incubated again for the indicated timepoints. Thereafter cells were incubated for 3 hours with 100 µl Thiazolyl Blue Tetrazolium Bromide (MTT). The resulting violet formazan crystals were dissolved by adding 100 µl of MTT Solubilization Solution (0.1% NP-40, 4 mM HCl and anhydrous isopropanol). After complete dissolution of the formazan product, absorbance was measured at 595 nm and 690 nm. The values obtained at 690 nm were subtracted from the 595 nm measurements."}, "[6]": {"assay": "Inhibition of lipolysis in vivo, oral gavage in fasted mice, plasma parameters", "design": "species or system C57BI/6J mice", "experimental": "• Figure 1. Structure of compounds 1 to 3 (reference) and compound 4 (atglistatin) and effect on ATGL activity. For determination of lipase activity, lysates of E. coli overexpressing recombinant strep-tagged ATGL and CGI-58 were incubated with a substrate containing radiolabeled [9,10-3H(N)]-triolein. Subsequently, FA were extracted and quantified by liquid scintillation counting. Lysates of cells expressing empty vector were set as blank. Inhibitors were solubilized in DMSO and added at the indicated concentrations. DMSO alone was used as negative control. (A) Structure and IC50 values of compounds 1-4. (B) Dose-dependent inhibition of ATGL in the presence of compound 3 and 4. […] (C) Lineweaver-Burk plots for kinetic analysis of ATGL inhibition. Experiments were performed at varying concentrations of substrate (0.05 - 3 mM) in presence and absence of compound 4 (Atglistatin). […] Data are presented as mean +/-S.D. of triplicate determinations. Data for compound 4 are representative for at least three independent experiments. • Figure 2. Selectivity of Atglistatin. Lipase activity of ATGL, HSL, lipoprotein lipase, and pancreatic lipase was determined using triolein as substrate. MGL activity was detected in the presence of rac-(1,3)-monooleoylglycerol as substrate. Inhibitors were solubilized in DMSO and added at the indicated concentrations. DMSO alone was used as negative control. (A) Dose-dependent inhibition of TG hydrolase activity in WAT lysates obtained from wild-type and ATGL-ko mice. (B) Inhibition of TG hydrolase activity in wild-type WAT lysates by Atglistatin (40 µM) and by the HSL inhibitor Hi 76-0079 (20 µM). (C) Effect of Atglistatin on murine MGL (purified from E. coli), and murine HSL (overexpressed in COS-7 lysates) activity. (D) Effect of Atglistatin on purified bovine LPL (Sigma) and pancreatic lipase (from porcine pancreas, Sigma). Data are presented as mean +/- S.D. of triplicate determinations and are representative for at least three independent experiments (p < 0.05 **, p < 0.01; ***, p < 0.001). • Figure 3 Inhibition of lipolysis in 3T3-L1 adipocytes and WAT organ cultures. (A,B) Differentiated 3T3 cells were preincubated with the indicated concentrations of Atglistatin. Thereafter, the medium was replaced by DMEM containing 2% BSA (fatty acid free), 10 µM forskolin, in the presence or absence of inhibitors. The release of FA (A) and glycerol (B) in the media was determined using commercial kits. Basal FA and glycerol release (not shown) was barely detectable under the applied conditions. Data are presented as mean +/- SD and are representative for 2 independent experiments. (C-F) Effect of Atglistatin on WAT basal (C, D) and forskolin-stimulated (E, F) lipolysis. Adipose tissue pieces (∼15 mg, n=5 for each concentration) of wild-type mice were cultured for 8 h in DMEM containing 2 % FA-free BSA and the indicated concentrations of Atglistatin. Subsequently, the medium was replaced by identical fresh medium and samples were collected after incubation for another hour in the presence or in the absence of 10 µM forskolin. Atglistatin was solubilized in DMSO and DMSO alone was used as negative control. Data are presented as mean +/- S.D. (*, p < 0.05 **, p < 0.01; ***, p < 0.001). • Figure 4 Inhibition of lipolysis in vivo. (A,B) Time dependent effect of Atglistatin on plasma free fatty acids (FFA) and glycerol levels of mice. C57BI6 mice were fasted overnight (ON) and received an oral gavage containing 100 µmol/kg Atglistatin dissolved in olive oil, or olive oil as control. At the indicated timepoints blood was taken retroorbitally and plasma parameters were measured using commercial kits. (C,D) Dose dependent effect of Atglistatin on plasma FFA and glycerol levels of mice. C57BI6 mice were fasted ON and received an oral gavage containing 0, 50, 100, or 200 µmol/kg Atglistatin dissolved in olive oil, or olive oil as control. 8 h after gavage blood was taken retroorbitally and plasma parameters were measured using commercial kits. […]"}, "[7]": {"details": "plasma, 200 µmol/kg oral gavage, after 8 h, mean ± S.D., n = 7"}, "[8]": {"details": "up to, 50, 100 or 200 µmol/kg oral gavage, 8 h after gavage"}}, "note": "Marks after values point to notes of the source that are not given here."}
{"smiles": "CN(C)C(=O)Nc1cccc(-c2ccc(N(C)C)cc2)c1", "note": "[Atglistatin, atglistatin]", "values": [{"measurement": "inhibition of TG hydrolase activity of wild-type WAT", "setting": "[1]", "value": "up to 78%"}, {"measurement": "effect on the residual TG hydrolase activity in ATGL-ko lysates", "setting": "[2]", "value": "moderate but significant effect"}, {"measurement": "effect on lipoprotein lipase", "setting": "[3]", "value": "only minor effects"}, {"measurement": "basal lipolysis", "setting": "[4]; dose dependent (0-50 µM)", "value": "reduced basal lipolysis"}, {"measurement": "reduction of forskolin-stimulated FA release", "setting": "[4]; up to, 10 µM forskolin", "value": "up to 72%"}, {"measurement": "reduction of forskolin-stimulated glycerol release", "setting": "[4]; up to, 10 µM forskolin", "value": "≤ 66", "unit": "%"}, {"measurement": "cell viability (cytotoxicity assays)", "setting": "[5]", "value": "only a very moderate decrease in cell viability"}, {"measurement": "plasma levels for glycerol, time course", "setting": "[6]; 100 µmol/kg oral gavage in olive oil, between 4 h and 8 h after gavage", "value": "time dependent decrease"}, {"measurement": "plasma levels for FA, time course", "setting": "[6]; 100 µmol/kg oral gavage in olive oil, between 4 h and 12 h after gavage", "value": "time dependent decrease"}, {"measurement": "FFA", "setting": "[6]; [7]", "value": "0.53 ± 0.05*** mmol/L"}, {"measurement": "Triglycerides", "setting": "[6]; [7]", "value": "0.33 ± 0.14** mmol/L"}, {"measurement": "dose-dependent decrease in plasma FA levels", "setting": "[6]; [8]", "value": "up to 50%"}, {"measurement": "dose-dependent decrease in plasma glycerol levels", "setting": "[6]; [8]", "value": "≤ 70", "unit": "%"}]}
